Laboratory results: patent publication US5053070A, “Pyrimidine derivatives, preparation processes thereof, herbicide containing the same, and herbicidal compositions containing the same along with other active ingredient” (Mitsui Toatsu Chemicals, Incorporated, priority 1988, dated 1991)

Experiments:
[1] = test system: ALS (acetolactate syntase); assay: ALS enzyme assay (Test 1); format: biochemical, pea; conditions: 1,000 ppm (0.5 mg/0.5 ml)
Description: To determine the selectivity in enzyme level between crops and weeds, and ALS enzyme assay was conducted using pea as a representative of broadleaf crops and barnyardgrass as a representative of narrowleaf weeds.
After seeds of pea and barnyardgrass were allowed to germinate at 25° C. for 8-14 days in a dark place, partially-purified suspensions (Suspensions A) of acetolactate syntase were separately obtained from seedlings in accordance with the method described in the literature, Plant Physiology, 75, 827-831.
In a test tube, 0.5 mg of one of test compounds was weighed, followed by the addition of 0.15 ml of a 20 mM K2 HPO4 solution and 0.25 ml of a reaction substrate medium which consisted of 40 mM of K2 HPO4, 40 mM of sodium pyruvate, 1 mM of TPP, 1 mM of MgCl2 and 20 μM of FAD so that 0.4 ml of a reaction solution (Solution B) was prepared. Added to 0.4 ml of Solution B was 0.1 ml of suspension A. After the resultant mixture was shaken for 1 hour in a thermostat water bath controlled at 30° C., 50 μl of 6N sulfuric acid were added to terminate the reaction.
Next, the reaction-terminated liquid mixture was transferred into a thermostat water bath controlled at 60° C. and was heated for 15 minutes. Thereafter, 0.5 ml of a 0.5% creatine solution and 0.5 ml of a 5% alkaline α-naphthol solution were added, and the resultant mixture was maintained at 60° C. for 15 minutes. As a result, the test solution developed a pink-red color. After the above operation, the absorbance of the test solution at 525 nm was measured by a spectrophotometer (Absorbance 1 of Test Compound).
On the other hand, the absorbance (Absorbance 2 of Blank) of a solution obtained by subjecting a portion of Solution B, said portion being free of the test compound, to the above operation and the absorbance (Absorbance 3 of sulfuric acid terminated) of another solution obtained by subjecting another portion of Solution B, said portion containing 50 μl of 6N sulfuric acid as a test compound, were measured at the same time. Based on the values of the respective measurements, the enzyme assay at 1,000 ppm (0.5 mg/0.5 ml) of each compound was determined. [formula]

green foxtail [2] = assay: Upland foliar application test (Test 3); format: in vivo; conditions: 30 g ai/a, foliar spray at 2-3 leaves, 30th day
Description: (§1) Resin-made 1/10000-are pots were filled with the soil of an upland field. Redroot pigweed, common lambsquarters, foxtail meadow, johnsongrass, barnyardgrass, green foxtail, large crabgrass, soybean, peanut and cotton were separately seeded and were allowed to germinate in a green house. When each plant grew to the stage of 2-3 leaves, an emulsion formulated from a predetermined amount of each test compound in a similar manner to the method described in Formulation Example 11 was diluted with water to a predetermined dilution rate and then sprayed at an application rate equal to 5 l per are onto the foliage of each plant by means of a pressure-operated ULV (ultra low volume) sprayer. Influence to the crops and weeds were observed on the 30th day after the spray of the herbicides. The results are shown in Table 4 in which the degree of damages of each test plant and the degree of injury to each crop are shown in a similar manner to Test 2.

redroot pigweed [3] = assay: Upland foliar application test (Test 3); format: in vivo; conditions: 30 g ai/a, foliar spray at 2-3 leaves, 30th day
Description: as §1

barnyardgrass [4] = assay: Upland foliar application test (Test 3); format: in vivo; conditions: 30 g ai/a, foliar spray at 2-3 leaves, 30th day
Description: as §1

johnsongrass [5] = assay: Upland foliar application test (Test 3); format: in vivo; conditions: 30 g ai/a, foliar spray at 2-3 leaves, 30th day
Description: as §1

large crabgrass [6] = assay: Upland foliar application test (Test 3); format: in vivo; conditions: 30 g ai/a, foliar spray at 2-3 leaves, 30th day
Description: as §1

foxtail meadow [7] = assay: Upland foliar application test (Test 3); format: in vivo; conditions: 30 g ai/a, foliar spray at 2-3 leaves, 30th day
Description: as §1

common lambsquarters [8] = assay: Upland foliar application test (Test 3); format: in vivo; conditions: 30 g ai/a, foliar spray at 2-3 leaves, 30th day
Description: as §1

rice = assay: Treatment of soil under submerged condition, pre-emergence (Test 4), injury; format: in vivo; conditions: 30 g ai/a granule, 30 days later
Description: 1/5000-are Wagner pots were filled with soil. Seeds or tubers of barnyardgrass, Monochoria vaginalis, bulrush, Sagittaria pygmaea, Cyperus seroylnus and Eleocharis kuroguwai were seeded or planted under submerged condition. Two pairs of rice seedlings (2-3 leaf stage), which had been reared in advance, were transplanted to each pot and were allowed to germinate in a green house. Each pair consisted of two rice seedlings. One day later (before emergence of weeds), each pot was treated with a granule which had been prepared by processing a predetermined amount of the test composition in accordance with a similar method to the method described in Formulation Example 9. The state of emergence of weeds and the state of injury of rice were observed 30 days later.
In the table, the degrees of damages of the test plants and the degrees of injury of rice are shown in a similar manner to Example 2.

green foxtail [9] = assay: Upland soil application test (Test 2); format: in vivo; conditions: 30 g ai/a, soil spray before emergence, 30 days later
Description: (§2) Resin-made 1/2500-are pots were filled with the soil of an upland field. After they were fertilized, soybean, peanut and cotton were seeded and 2-3 cm soil covering was applied. Seeds of redroot pigweed, common lambsquarters, barnyardgrass, green foxtail, large crabgrass, foxtail meadow and johnsongrass had been uniformly mixed with the soil. They were allowed to germinate in a green house. One day later (before emergence of weeds), a wettable powder prepared from a predetermined amount of each test compound in a similar manner to the method described in Formulation Example 1 was diluted with water and then sprayed evenly at an application rate equal to 10 l per are onto the surface of the soil by means of a pressure-operated ULV (ultra low volume) sprayer. Influence to the crops and weeds were observed 30 days later. The results are shown in Table 3, in which the degree of damages of each test plant and the degree of injury to each crop were determined by comparing the air-dried weights of the test plant and crop with those of the corresponding plant and crop in untreated pots and are shown in accordance with the following standard: […]

redroot pigweed [10] = assay: Upland soil application test (Test 2); format: in vivo; conditions: 30 g ai/a, soil spray before emergence, 30 days later
Description: as §2

barnyardgrass [11] = assay: Upland soil application test (Test 2); format: in vivo; conditions: 30 g ai/a, soil spray before emergence, 30 days later
Description: as §2

johnsongrass [12] = assay: Upland soil application test (Test 2); format: in vivo; conditions: 30 g ai/a, soil spray before emergence, 30 days later
Description: as §2

large crabgrass [13] = assay: Upland soil application test (Test 2); format: in vivo; conditions: 30 g ai/a, soil spray before emergence, 30 days later
Description: as §2

foxtail meadow [14] = assay: Upland soil application test (Test 2); format: in vivo; conditions: 30 g ai/a, soil spray before emergence, 30 days later
Description: as §2

common lambsquarters [15] = assay: Upland soil application test (Test 2); format: in vivo; conditions: 30 g ai/a, soil spray before emergence, 30 days later
Description: as §2

| SMILES | Inhibitory activity (%) Pea [1] [%] | Herbicidal effects Green foxtail (green foxtail [2]) | Herbicidal effects Redroot pigweed (redroot pigweed [3]) | Herbicidal effects Barnyardgrass (barnyardgrass [4]) | Herbicidal effects Johnsongrass (johnsongrass [5]) | Herbicidal effects Large crabgrass (large crabgrass [6]) | Herbicidal effects Foxtail meadow (foxtail meadow [7]) | Herbicidal effects Common lambsquarters (common lambsquarters [8]) | Injury Rice (rice) | Herbicidal effects Green foxtail (green foxtail [9]) | Herbicidal effects Redroot pigweed (redroot pigweed [10]) | Herbicidal effects Barnyardgrass (barnyardgrass [11]) | Herbicidal effects Johnsongrass (johnsongrass [12]) | Herbicidal effects Large crabgrass (large crabgrass [13]) | Herbicidal effects Foxtail meadow (foxtail meadow [14]) | Herbicidal effects Common lambsquarters (common lambsquarters [15]) |
| --- | --- | --- | --- | --- | --- | --- | --- | --- | --- | --- | --- | --- | --- | --- | --- | --- |
| COc1cc(OC)nc(Oc2ccccc2C=NO)n1 [Compound No. 24, 2-(4,6-dimethoxy-2-pyrimidinyloxy)-benzaloxime] | 0 | 4 (6-10 (Severe damages)) | 3 (11-40 (Medium damages)) | 4 (6-10 (Severe damages)) | 5 (0-5 (Death)) | 4 (6-10 (Severe damages)) | 4 (6-10 (Severe damages)) | 3 (11-40 (Medium damages)) | 1 (71-90 (Slight damages)) | 5 (0-5 (Death)) | 4 (6-10 (Severe damages)) | 4 (6-10 (Severe damages)) | 5 (0-5 (Death)) | 4 (6-10 (Severe damages)) | 5 (0-5 (Death)) | 4 (6-10 (Severe damages)) |
| COc1cc(OC)nc(Oc2ccccc2C=NOCC=Cc2cccc(Cl)c2)n1 [Compound No. 26, 0-(3-chlorocinnamyl)-2-(4,6-dimethoxy-2-pyrimidinyloxy)benzaldxime] | 8 | 5 (0-5 (Death)) | 4 (6-10 (Severe damages)) | 5 (0-5 (Death)) | 5 (0-5 (Death)) | 5 (0-5 (Death)) | 4 (6-10 (Severe damages)) | 4 (6-10 (Severe damages)) | 0 (91-100 (No damages)) | 5 (0-5 (Death)) | 5 (0-5 (Death)) | 5 (0-5 (Death)) | 5 (0-5 (Death)) | 5 (0-5 (Death)) | 4 (6-10 (Severe damages)) | 4 (6-10 (Severe damages)) |
| COc1cc(OC)nc(Oc2ccccc2C=NOCC=Cc2ccccc2Cl)n1 [Compound No. 27] | 12 | 5 (0-5 (Death)) | 5 (0-5 (Death)) | 4 (6-10 (Severe damages)) | 5 (0-5 (Death)) | 5 (0-5 (Death)) | 5 (0-5 (Death)) | 4 (6-10 (Severe damages)) | 0 (91-100 (No damages)) | 5 (0-5 (Death)) | 5 (0-5 (Death)) | 4 (6-10 (Severe damages)) | 5 (0-5 (Death)) | 5 (0-5 (Death)) | 5 (0-5 (Death)) | 4 (6-10 (Severe damages)) |
| COc1cc(OC)nc(Oc2ccccc2C=NOCC=Cc2ccc(Cl)cc2)n1 [Compound No. 28] | 8 | 4 (6-10 (Severe damages)) | 4 (6-10 (Severe damages)) | 5 (0-5 (Death)) | 5 (0-5 (Death)) | 4 (6-10 (Severe damages)) | 5 (0-5 (Death)) | 4 (6-10 (Severe damages)) | 0 (91-100 (No damages)) | 5 (0-5 (Death)) | 4 (6-10 (Severe damages)) | 4 (6-10 (Severe damages)) | 5 (0-5 (Death)) | 4 (6-10 (Severe damages)) | 5 (0-5 (Death)) | 4 (6-10 (Severe damages)) |

Second part, led by results:

| Inhibitory activity (%) Pea [1] [%] | SMILES | Herbicidal effects Green foxtail (green foxtail [2]) | Herbicidal effects Redroot pigweed (redroot pigweed [3]) | Herbicidal effects Barnyardgrass (barnyardgrass [4]) | Herbicidal effects Johnsongrass (johnsongrass [5]) | Herbicidal effects Large crabgrass (large crabgrass [6]) | Herbicidal effects Foxtail meadow (foxtail meadow [7]) | Herbicidal effects Common lambsquarters (common lambsquarters [8]) | Injury Rice (rice) | Herbicidal effects Green foxtail (green foxtail [9]) | Herbicidal effects Redroot pigweed (redroot pigweed [10]) | Herbicidal effects Barnyardgrass (barnyardgrass [11]) | Herbicidal effects Johnsongrass (johnsongrass [12]) | Herbicidal effects Large crabgrass (large crabgrass [13]) | Herbicidal effects Foxtail meadow (foxtail meadow [14]) | Herbicidal effects Common lambsquarters (common lambsquarters [15]) |
| --- | --- | --- | --- | --- | --- | --- | --- | --- | --- | --- | --- | --- | --- | --- | --- | --- |
| 0 | COc1cc(OC)nc(Oc2ccccc2C=NOCC=Cc2cccc(C)c2)n1 [Compound No. 34, 0-(3-methylcinnamyl)-2-(4,6-dimethoxy-2-pyrimidinyloxy)benzaldoxime] | 5 (0-5 (Death)) | 4 (6-10 (Severe damages)) | 5 (0-5 (Death)) | 5 (0-5 (Death)) | 4 (6-10 (Severe damages)) | 5 (0-5 (Death)) | 4 (6-10 (Severe damages)) | 0 (91-100 (No damages)) | 5 (0-5 (Death)) | 4 (6-10 (Severe damages)) | 5 (0-5 (Death)) | 5 (0-5 (Death)) | 4 (6-10 (Severe damages)) | 5 (0-5 (Death)) | 4 (6-10 (Severe damages)) |
| 0 | COc1cc(OC)nc(Oc2ccccc2C=NOCC=Cc2ccccc2C)n1 [Compound No. 39] | 5 (0-5 (Death)) | 5 (0-5 (Death)) | 5 (0-5 (Death)) | 5 (0-5 (Death)) | 5 (0-5 (Death)) | 5 (0-5 (Death)) | 4 (6-10 (Severe damages)) | 1 (71-90 (Slight damages)) | 5 (0-5 (Death)) | 5 (0-5 (Death)) | 4 (6-10 (Severe damages)) | 5 (0-5 (Death)) | 5 (0-5 (Death)) | 5 (0-5 (Death)) | 4 (6-10 (Severe damages)) |
